In ChEMBL document CHEMBL3046912, “Effectiveness of 1,3-dichloropropene as an alternative to methyl bromide in rotations of tomato (Solanum lycopersicum) and cucumber (Cucumis sativus) in China” (2012):

What was measured:
Format in all cases: functional
Solanum lycopersicum = experiment: Increase in crop yield in Solanum lycopersicum (tomato) plants exposed to 180 L/ha compound fumigation treatment assessed as extra-large fruit yield (reference value: 3.8 ton/ha)
Meloidogyne incognita = experiment: Nematicidal activity against Meloidogyne incognita (root-knot nematode) in cucumber growing fields exposed to 90 L/ha compound fumigation treatment assessed as root galling index measured 20 days after compound treatment (reference value: 8.72 root galling index)
Digitaria sanguinalis [1] = experiment: Herbicidal activity against Digitaria sanguinalis (hairy crabgrass) in cucumber plants fields exposed to 120 L/ha compound fumigation treatment assessed as hand weeding time per plot relative to untreated control
Digitaria sanguinalis [2] = experiment: Herbicidal activity against Digitaria sanguinalis (hairy crabgrass) in tomato plants fields exposed to 90 L/ha compound fumigation treatment assessed as hand weeding time per plot relative to untreated control
Digitaria sanguinalis [3] = experiment: Herbicidal activity against Digitaria sanguinalis (hairy crabgrass) in tomato plants fields exposed to 180 L/ha compound fumigation treatment assessed as hand weeding time per plot relative to untreated control
Cucumis sativus = experiment: Increase in plant height of Cucumis sativus (cucumber) exposed to 180 L/ha compound fumigation treatment measured 50 days after compound treatment (reference value: 103.2 cm)

Cl/C=C/CCl [1,3-DICHLOROPROPENE]
Crop_yield (Solanum lycopersicum): 8.4 tons/ha | Root_galling_index (Meloidogyne incognita): 4.28 | Activity (Digitaria sanguinalis [1]): 45% | Activity (Digitaria sanguinalis [2]): 45% | Activity (Digitaria sanguinalis [3]): 45% | Activity (Cucumis sativus): 130.7 cm
